How the values were obtained:
recombinant human PEPD = recombinant human PEPD (Homo sapiens (Human), UniProt P12955); assay: PEPD substrate assay (Ala-Pro cleavage, L-alanine assay kit); type: biochemical; settings: for IC50: 50 nM recombinant human PEPD, Ala-Pro 40 μM, 25° C.
Method: Protein purification. Human prolidase (PEPD) was generated and purified. XPNPEP1 in pET15-b containing a 6× His tag was expressed in E. coli Rosetta DE3 cells.
Substrate assays. For the PEPD assay, a solution of substrate (Ala-Pro) was prepared in DMSO. 24 μL of 50 nM recombinant human PEPD were added to a 384-well, black, clear-bottom plate (Corning) with 1 μL dipeptide Ala-Pro (final conc. 40 μM). […] For the AMC reporter assays, experiments were performed with cell lysates. 5 μL solution of substrate (2.5 mM Ala-AMC) was added the mixture of 10 μL HEK293T cell lysates (2.5 mg/ml) and 10 μL of indicated compounds in a 384-well, black, clear-bottom plate (Corning) to initiate the reaction. Substrate cleavage was measured as increasing fluorescence signal (Ex/Em: 380/460 nm) recorded at 25° C. for 20 mins. […] H-Lys(abz)-Pro-Pro-pNA substrate was added to a final concentration of 100 μM, and fluorescence was monitored (Ex/Em: 320/410) for 60 mins.

XPNPEP1 = XPNPEP1 (Homo sapiens (Human), UniProt Q9NQW7); assay: XPNPEP1 substrate assay (H-Lys(abz)-Pro-Pro-pNA); type: biochemical; settings: for IC50: XPNPEP1 3.5 nM, substrate 100 μM, 60 mins
Method: Protein purification. Human prolidase (PEPD) was generated and purified. XPNPEP1 in pET15-b containing a 6× His tag was expressed in E. coli Rosetta DE3 cells. Cells were induced with IPTG for 16 h at 37° C., pelleted and lysed in buffer A (20 mM Tris-HCl (pH 7.9), 500 mM NaCl, and 10% (v/v) glycerol) by sonication. Affinity purification chromatography was performed using TALON resin and according to previously published protocols (Li et al., 2008).
Substrate assays. For the PEPD assay, a solution of substrate (Ala-Pro) was prepared in DMSO. 24 μL of 50 nM recombinant human PEPD were added to a 384-well, black, clear-bottom plate (Corning) with 1 μL dipeptide Ala-Pro (final conc. 40 μM). Alanine liberated was measured as increasing fluorescence signal (Resorufin, Ex/Em: 535/587 nm) recorded at 25° C. using an L-alanine assay kit (Abcam, ab83394) at 25° C. according to manufacturer's instructions. For the AMC reporter assays, experiments were performed with cell lysates. 5 μL solution of substrate (2.5 mM Ala-AMC) was added the mixture of 10 μL HEK293T cell lysates (2.5 mg/ml) and 10 μL of indicated compounds in a 384-well, black, clear-bottom plate (Corning) to initiate the reaction. Substrate cleavage was measured as increasing fluorescence signal (Ex/Em: 380/460 nm) recorded at 25° C. for 20 mins. For XPNPEP1 enzymes (XPNPEP1 3.5 nM) were plated on a black 384-well clear bottom plate and treated with the indicated doses of compounds. H-Lys(abz)-Pro-Pro-pNA substrate was added to a final concentration of 100 μM, and fluorescence was monitored (Ex/Em: 320/410) for 60 mins.

MV4;11 CASP1-/- cells = assay: CellTiter-Glo cell viability, CASP1-/- MV4;11 cells; type: cell-based; settings: 24 h, CTG; for CASP1-independent cell death: WT and CASP1-/- MV4;11 cells
Method: Cloning. CASP1^−/− MV4;11 cells^12; CARD8^−/− MV4;11, THP-1, OCI-AML2 cells^14; DPP8/9^−/− THP-1^12; PEPD^−/−, XPNPEP1^−/−, PEPD XPNPEP1^−/− THP-1 cells were generated. Plasmids for CARD8 variants, CASP1, GSDMD, dTAG-CARD8^ZUC were cloned as described previously (Hollingsworth et al., 2021; Johnson et al., 2018; Sharif et al., 2021).
(§1) CellTiter-Glo cell viability and CytoTox-Fluor cell death assays. Cells were plated (2,000 cells per well) in white, 384-well clear-bottom plates (Corning) using an EL406 Microplate Washer/Dispenser (BioTek) in 25 μL final volume of medium. To the cell plates were added compounds at different concentrations using a pintool (CyBio) and the plates were allowed to incubate in the incubator. After incubation for indicated times, CytoTox-Fluor reagent (Promega, G9262) was added according to the manufacturer's protocol. The assay plates were then incubated for another 30 min before fluorescence was recorded using a Cytation 5 Cell Imaging Multi-Mode Reader (BioTek). Next, CellTiter-Glo reagent (Promega, G7573) was subsequently added to the assay plates following the manufacturer's protocol. Assay plates were shaken on an orbital shaker for 2 min and incubated at 25° C. for 10 min. Luminescence was then read using a Cytation 5 Cell Imaging Multi-Mode Reader (BioTek).

[1] = Stability in cell culture supernatants; type: in vitro ADME
MV4;11 WT cells = assay: CellTiter-Glo cell viability, WT MV4;11 cells; type: cell-based; settings: for cytotoxicity to MV4;11 cells (in words) / IC50: 24 h, CTG
Method: as §1

XPNPEP1, sequence (Q9NQW7 whole entry): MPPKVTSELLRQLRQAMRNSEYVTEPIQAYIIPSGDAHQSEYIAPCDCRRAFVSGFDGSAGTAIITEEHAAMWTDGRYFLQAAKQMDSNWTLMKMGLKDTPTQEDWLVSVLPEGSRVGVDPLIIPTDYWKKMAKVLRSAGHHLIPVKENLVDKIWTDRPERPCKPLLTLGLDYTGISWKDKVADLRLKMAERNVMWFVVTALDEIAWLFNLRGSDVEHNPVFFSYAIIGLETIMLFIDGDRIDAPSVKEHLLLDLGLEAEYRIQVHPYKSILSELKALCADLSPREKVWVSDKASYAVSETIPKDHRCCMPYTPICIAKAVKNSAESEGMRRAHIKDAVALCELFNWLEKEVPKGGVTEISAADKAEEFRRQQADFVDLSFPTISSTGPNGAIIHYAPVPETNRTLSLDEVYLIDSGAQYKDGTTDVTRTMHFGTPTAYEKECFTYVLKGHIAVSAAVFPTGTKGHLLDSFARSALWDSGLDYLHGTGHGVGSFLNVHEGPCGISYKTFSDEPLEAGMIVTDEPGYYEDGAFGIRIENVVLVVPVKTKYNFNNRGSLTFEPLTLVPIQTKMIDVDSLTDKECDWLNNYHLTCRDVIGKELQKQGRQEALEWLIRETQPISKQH
recombinant human PEPD, sequence (P12955 whole entry): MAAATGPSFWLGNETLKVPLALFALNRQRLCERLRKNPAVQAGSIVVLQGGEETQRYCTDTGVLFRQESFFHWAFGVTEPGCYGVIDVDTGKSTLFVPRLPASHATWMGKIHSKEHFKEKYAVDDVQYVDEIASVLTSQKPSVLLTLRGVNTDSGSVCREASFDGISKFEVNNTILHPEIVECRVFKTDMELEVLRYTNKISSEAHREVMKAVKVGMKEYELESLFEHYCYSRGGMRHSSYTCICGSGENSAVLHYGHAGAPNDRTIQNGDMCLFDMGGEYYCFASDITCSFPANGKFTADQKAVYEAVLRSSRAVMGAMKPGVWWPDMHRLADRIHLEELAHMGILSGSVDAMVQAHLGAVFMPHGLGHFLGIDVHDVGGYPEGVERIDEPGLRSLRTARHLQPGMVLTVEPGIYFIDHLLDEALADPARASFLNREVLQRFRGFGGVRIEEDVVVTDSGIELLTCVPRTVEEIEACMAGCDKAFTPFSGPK

Row | IC50 (recombinant human PEPD) | IC50 (XPNPEP1) | SMILES | cytotoxicity to MV4;11 cells (in words) (MV4;11 WT cells) | also measured
1 | > 100 µM | 96 µM | COC(=O)[C@H](Cc1ccccc1)NC(=O)[C@@H](O)[C@H](N)CC(C)C [CQ72, Methyl ((2S,3R)-3-amino-2-hydroxy-5-methylhexanoyl)-L-phenylalaninate] | – | PEPD inhibition (in words) (recombinant human PEPD): very weak PEPD and XPNPEP1 inhibitors; XPNPEP1 inhibition (in words) (XPNPEP1): very weak PEPD and XPNPEP1 inhibitors; CASP1-independent cell death (MV4;11 CASP1-/- cells): triggered CASP1-independent cell death
2 | > 100 µM | 12 µM | CC(C)C[C@@H](N)[C@H](O)C(=O)N1CCC[C@H]1CNS(C)(=O)=O [CQ53, N—(((S)-1-((2S,3R)-3-amino-2-hydroxy-5-methylhexanoyl)pyrrolidin-2-yl)methyl)methanesulfon-amide] | inactive in cells | –
3 | – | – | COC(=O)[C@H](CC(C)C)NC(=O)[C@@H](O)[C@H](N)Cc1ccccc1 [MeBs, bestatin methyl ester, reference compound] | – | CASP1-independent cell death (MV4;11 CASP1-/- cells): CASP1-independent cell death
4 | 51 µM | 57 µM | COC(=O)[C@H](CC(C)C)NC(=O)[C@@H](O)[C@H](N)CC(C)C [CQ52, Methyl ((2S,3R)-3-amino-2-hydroxy-5-methylhexanoyl)-L-leucinate] | – | PEPD inhibition (in words) (recombinant human PEPD): very weak PEPD and XPNPEP1 inhibitors; XPNPEP1 inhibition (in words) (XPNPEP1): very weak PEPD and XPNPEP1 inhibitors; CASP1-independent cell death (MV4;11 CASP1-/- cells): triggered CASP1-independent cell death
5 | 1.6 µM | 303 µM | CONC(=O)[C@@H]1CCCN1C(=O)[C@@H](O)[C@H](N)CC(C)C [CQ55, (S)-1-((2S,3R)-3-amino-2-hydroxy-5-methylhexanoyl)-N-methoxypyrrolidine-2-carboxamide] | inactive in cells | –
6 | 12 µM | 33 µM | COC(=O)[C@@H]1CCCN1C(=O)[C@@H](O)[C@H](N)C12CC3CC(CC(C3)C1)C2 [CQ47, Methyl ((2S,3R)-3-(adamantan-1-yl)-3-amino-2-hydroxypropanoyl)-L-prolinate] | almost completely inactive | –
7 | 0.29 µM | 140 µM | CC(C)CCNC(=O)[C@@H]1CCCN1C(=O)[C@@H](O)[C@H](N)CC(C)C [CQ95, (S)-1-((2S,3R)-3-amino-2-hydroxy-5-methylhexanoyl)-N-isopentylpyrrolidine-2-carboxamide] | – | overall activity (PEPD/XPNPEP1 inhibition and cytotoxicity, Table 6 and FIG. 2), in words (MV4;11 WT cells): retained similar PEPD/XPNPEP1 inhibition and cytotoxicity as CQ31
8 | 6.2 µM | 67 µM | CC(C)C[C@@H](N)[C@H](O)C(=O)N1CCC[C@H]1c1nnn[nH]1 [CQ99, (2S,3R)-1-((S)-2-(1H-tetrazol-5-yl)pyrrolidin-1-yl)-3-amino-2-hydroxy-5-methylhexan-1-one] | inactive in cells | –
9 | > 100 µM | 38 µM | CC(C)C[C@@H](N)[C@H](O)C(=O)N1CCCC1 [CQ76, (2S,3R)-3-amino-2-hydroxy-5-methyl-1-(pyrrolidin-1-yl)hexan-1-one] | – | overall activity (PEPD/XPNPEP1 inhibition and cytotoxicity, Table 6 and FIG. 2), in words (MV4;11 WT cells): abrogated all activity
10 | 0.28 µM | 53 µM | CC(C)C[C@@H](N)[C@H](O)C(=O)N1CCC[C@H]1C(N)=O [CQ49, (S)-1-((2S,3R)-3-amino-2-hydroxy-5-methylhexanoyl)pyrrolidine-2-carboxamide] | – | overall activity (PEPD/XPNPEP1 inhibition and cytotoxicity, Table 6 and FIG. 2), in words (MV4;11 WT cells): retained similar PEPD/XPNPEP1 inhibition and cytotoxicity as CQ31
11 | 4.2 µM | 66 µM | COC(=O)[C@@H]1CCCN1C(=O)[C@@H](O)[C@H](N)C1CC1 [CQ62, Methyl ((2S,3R)-3-amino-3-cyclopropyl-2-hydroxypropanoyl)-L-prolinate] | almost completely inactive | –
12 | – | – | CC(C)C[C@@H](N)[C@H](O)C(=O)N1CCC[C@H]1C(=O)OC1CCCC1 [CQ94, Cyclopentyl ((2S,3R)-3-amino-2-hydroxy-5-methylhexanoyl)-L-prolinate] | slightly more toxic | PEPD inhibition (in words) (recombinant human PEPD): inhibited PEPD and XPNPEP1 inhibitors similarly; XPNPEP1 inhibition (in words) (XPNPEP1): inhibited PEPD and XPNPEP1 inhibitors similarly
13 | > 100 µM | 190 µM | COC(=O)[C@@H]1C[C@H](O)CN1C(=O)[C@@H](O)[C@H](N)CC(C)C [CQ39, Methyl (2S,4S)-1-((2S,3R)-3-amino-2-hydroxy-5-methylhexanoyl)-4-hydroxypyrrolidine-2-carboxylate] | – | overall activity (PEPD/XPNPEP1 inhibition and cytotoxicity, Table 6 and FIG. 2), in words (MV4;11 WT cells): completely inactive
14 | 0.3 µM | 115 µM | COC(=O)[C@@H]1CCCN1C(=O)[C@@H](O)[C@H](N)CCCCO [CQ75] | lost cytotoxicity | PEPD inhibition (in words) (recombinant human PEPD): retained PEPD inhibition

Row | SMILES | IC50 (recombinant human PEPD) | IC50 (XPNPEP1) | cytotoxicity to MV4;11 cells (in words) (MV4;11 WT cells) | also measured
15 | CC(C)C[C@H](NC(=O)[C@@H]1CCCN1C(=O)[C@@H](O)[C@H](N)CC(C)C)C(=O)NCCc1ccccc1 [CQ116, (S)-1-((2S,3R)-3-amino-2-hydroxy-5-methylhexanoyl)-N—((S)-4-methyl-1-oxo-1-(phenethylamino)pentan-2-yl)pyrrolidine-2-carboxamide] | 5.7 µM | 3.4 µM | – | stability in cell culture supernatants (in words) [1]: completely stable
16 | CC[C@H](C)[C@H](NC(=O)[C@@H]1CCCN1C(=O)[C@@H](O)[C@H](N)CC(C)C)C(=O)OC [CQ81, Methyl ((2S,3R)-3-amino-2-hydroxy-5-methylhexanoyl)-L-prolyl-L-isoleucinate] | 0.84 µM | 23 µM | – | IC50 (MV4;11 WT cells; Homo sapiens, MV4-11): 0.6 µM; IC50 (MV4;11 CASP1-/- cells; Homo sapiens, MV4-11): > 20 µM
17 | C[C@H](NC(=O)[C@@H]1CCCN1C(=O)[C@@H]1CCCN1C(=O)[C@@H](O)[C@H](N)Cc1ccccc1)C(N)=O [Apstatin, apstatin, reference compound] | – | 18 µM | not cytotoxic at all | IC50 (MV4;11 WT cells): > 20 µM; IC50 (MV4;11 CASP1-/- cells): > 20 µM
18 | COC(=O)[C@H](Cc1ccccc1)NC(=O)[C@@H]1CCCN1C(=O)[C@@H](O)[C@H](N)CC(C)C [CQ79, Methyl ((2S,3R)-3-amino-2-hydroxy-5-methylhexanoyl)-L-prolyl-L-phenylalaninate] | 0.72 µM | 48 µM | – | IC50 (MV4;11 WT cells; Homo sapiens, MV4-11): 0.66 µM; IC50 (MV4;11 CASP1-/- cells; Homo sapiens, MV4-11): > 20 µM
19 | COC(=O)[C@H](C)NC(=O)[C@@H]1CCCN1C(=O)[C@@H]1CCCN1C(=O)[C@@H](O)[C@H](N)CC(C)C [CQ50, Methyl ((2S,3R)-3-amino-2-hydroxy-5-methylhexanoyl)-L-prolyl-L-prolyl-L-alaninate] | 11 µM | 8.1 µM | – | IC50 (MV4;11 WT cells; Homo sapiens, MV4-11): 35 µM; IC50 (MV4;11 CASP1-/- cells; Homo sapiens, MV4-11): > 100 µM
